Measured values taken from publication PMC3056285 (Bioorganic & medicinal chemistry, 2011).
Blank lines part the entries; values can stand above or below the compound they belong to.

Assays:
[1] = Biodistribution of [^11C]MP-10 in rats; assay type: in vivo, Sprague-Dawley rats; conditions: male rats, tail vein injection
PDE10A = assay: MicroPET imaging studies in rhesus monkeys; assay type: in vivo; conditions: male rhesus monkeys
[2] = In vivo metabolite analysis in rat brain; set-up: species or system Sprague-Dawley rats; conditions: HPLC radioactivity
[3] = In vivo metabolite analysis in rat plasma; set-up: species or system Sprague-Dawley rats; conditions: HPLC radioactivity
[4] = 2 min post injection of [^11C]MP-10
[5] = 20 min post injection of [^11C]MP-10
[6] = 40 min post injection of [^11C]MP-10
[7] = 60 min post injection of [^11C]MP-10

Biodistribution Blood ([1]; 5 min): 0.123 ± 0.033 ID%/gram
Biodistribution Cerebellum ([1]; 5 min): 0.133 ± 0.023 ID%/gram
Biodistribution Cortex ([1]; 5 min): 0.133 ± 0.025 ID%/gram
Biodistribution Fat ([1]; 5 min): 0.124 ± 0.059 ID%/gram
Biodistribution Heart ([1]; 5 min): 0.264 ± 0.080 ID%/gram
Biodistribution Hippocampus ([1]; 5 min): 0.169 ± 0.049 ID%/gram
Biodistribution Liver ([1]; 5 min): 2.766 ± 0.350 ID%/gram
Biodistribution Lung ([1]; 5 min): 0.317 ± 0.037 ID%/gram
Biodistribution Muscle ([1]; 5 min): 0.093 ± 0.021 ID%/gram
Biodistribution Striatum ([1]; 5 min): 0.300 ± 0.094 ID%/gram
Biodistribution Testes ([1]; 5 min): 0.160 ± 0.048 ID%/gram
Biodistribution Total brain ([1]; 5 min): 0.162 ± 0.025 ID%/gram
Biodistribution Blood ([1]; 30 min): 0.065 ± 0.016 ID%/gram
Biodistribution Cerebellum ([1]; 30 min): 0.036 ± 0.003 ID%/gram
Biodistribution Cortex ([1]; 30 min): 0.044 ± 0.009 ID%/gram
Biodistribution Fat ([1]; 30 min): 0.075 ± 0.020 ID%/gram
Biodistribution Heart ([1]; 30 min): 0.102 ± 0.041 ID%/gram
Biodistribution Hippocampus ([1]; 30 min): 0.050 ± 0.010 ID%/gram
Biodistribution Kidney ([1]; 30 min): 0.366 ± 0.075 ID%/gram
Biodistribution Liver ([1]; 30 min): 3.395 ± 0.448 ID%/gram
Biodistribution Lung ([1]; 30 min): 0.155 ± 0.053 ID%/gram
Biodistribution Muscle ([1]; 30 min): 0.059 ± 0.010 ID%/gram
Biodistribution Striatum ([1]; 30 min): 0.236 ± 0.035 ID%/gram
Biodistribution Testes ([1]; 30 min): 0.098 ± 0.006 ID%/gram
Biodistribution Total brain ([1]; 30 min): 0.066 ± 0.008 ID%/gram
Biodistribution Blood ([1]; 60 min): 0.047 ± 0.012 ID%/gram
Biodistribution Cerebellum ([1]; 60 min): 0.035 ± 0.003 ID%/gram
Biodistribution Cortex ([1]; 60 min): 0.044 ± 0.014 ID%/gram
Biodistribution Fat ([1]; 60 min): 0.100 ± 0.013 ID%/gram
Biodistribution Heart ([1]; 60 min): 0.068 ± 0.023 ID%/gram
Biodistribution Hippocampus ([1]; 60 min): 0.051 ± 0.009 ID%/gram
Biodistribution Kidney ([1]; 60 min): 0.314 ± 0.060 ID%/gram
Biodistribution Liver ([1]; 60 min): 3.364 ± 0.613 ID%/gram
Biodistribution Lung ([1]; 60 min): 0.090 ± 0.012 ID%/gram
Biodistribution Muscle ([1]; 60 min): 0.039 ± 0.011 ID%/gram
Biodistribution Striatum ([1]; 60 min): 0.164 ± 0.036 ID%/gram
Biodistribution Testes ([1]; 60 min): 0.068 ± 0.021 ID%/gram
Biodistribution Total brain ([1]; 60 min): 0.056 ± 0.006 ID%/gram
SMILES: [11CH3]n1cc(-c2ccncc2)c(-c2ccc(OCc3ccc4ccccc4n3)cc2)n1 [[^11C]MP-10, 2-((4-(1-[^11C]methyl-4-(pyridin-4-yl)-1H-pyrazol-3-yl)phenoxy)methyl)-quinoline]
blood brain barrier penetration (PDE10A): can readily penetrate the blood brain barrier

% Peak #1, Brain Tissue [2, 4]: 1.03%
% Peak #1, Brain Tissue [2, 5]: 3.45%
% Peak #1, Brain Tissue [2, 6]: 11.47%
% Peak #1, Brain Tissue [2, 7]: 15.87%
% Peak #1, Plasma [3, 4]: 1.23%
% Peak #1, Plasma [3, 5]: 19.13%
% Peak #1, Plasma [3, 6]: 35.19%
% Peak #1, Plasma [3, 7]: 40.72%
SMILES: [11CH3]n1cc(-c2ccncc2)c(-c2ccc(O)cc2)n1 [metabolite #1, 4-(1-[^11C]methyl-4-(pyridin-4-yl)-1H-pyrazol-3-yl)phenol]
